Assay results taken from US20260297081A1, “COMPOUNDS AND METHODS OF TREATING CANCERS” (Cullgen Inc., priority 2023, published 2026).

Legend:
[1] = target: CDK4 (Homo sapiens, UniProt P11802+Q16531); assay: CDK4 percentage degradation in Calu-1 cells (Table 6); format: cell-based; parameters: Cells that express cyclin D1-3 and CDK4/6 proteins were treated with heterobifunctional compounds; endogenous in cells; host or cells: Calu-1; details: 16 hours; for inhibition at 0.04 µM: 40 nM; for inhibition at 0.2 µM: 200 nM
CDK4, sequence (P11802 2-303 limits assumed): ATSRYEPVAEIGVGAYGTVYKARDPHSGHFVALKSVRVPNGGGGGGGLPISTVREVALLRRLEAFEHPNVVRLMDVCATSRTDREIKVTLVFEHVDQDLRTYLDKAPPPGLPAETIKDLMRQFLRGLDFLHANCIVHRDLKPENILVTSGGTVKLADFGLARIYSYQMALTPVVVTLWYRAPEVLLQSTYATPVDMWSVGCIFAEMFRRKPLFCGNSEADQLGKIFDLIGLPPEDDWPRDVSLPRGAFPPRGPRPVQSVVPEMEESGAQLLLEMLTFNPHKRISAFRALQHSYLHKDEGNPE
CDK4, sequence (P24385 whole entry partner): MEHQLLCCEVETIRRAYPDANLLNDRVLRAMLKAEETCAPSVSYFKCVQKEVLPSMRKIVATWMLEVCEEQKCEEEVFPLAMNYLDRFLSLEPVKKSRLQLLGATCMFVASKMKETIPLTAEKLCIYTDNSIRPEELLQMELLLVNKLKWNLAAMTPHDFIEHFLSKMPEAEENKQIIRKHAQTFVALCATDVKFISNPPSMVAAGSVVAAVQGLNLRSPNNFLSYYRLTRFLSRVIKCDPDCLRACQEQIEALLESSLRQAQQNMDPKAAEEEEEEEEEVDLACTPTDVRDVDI
CDK4, sequence (Q16531 2-1140 limits assumed): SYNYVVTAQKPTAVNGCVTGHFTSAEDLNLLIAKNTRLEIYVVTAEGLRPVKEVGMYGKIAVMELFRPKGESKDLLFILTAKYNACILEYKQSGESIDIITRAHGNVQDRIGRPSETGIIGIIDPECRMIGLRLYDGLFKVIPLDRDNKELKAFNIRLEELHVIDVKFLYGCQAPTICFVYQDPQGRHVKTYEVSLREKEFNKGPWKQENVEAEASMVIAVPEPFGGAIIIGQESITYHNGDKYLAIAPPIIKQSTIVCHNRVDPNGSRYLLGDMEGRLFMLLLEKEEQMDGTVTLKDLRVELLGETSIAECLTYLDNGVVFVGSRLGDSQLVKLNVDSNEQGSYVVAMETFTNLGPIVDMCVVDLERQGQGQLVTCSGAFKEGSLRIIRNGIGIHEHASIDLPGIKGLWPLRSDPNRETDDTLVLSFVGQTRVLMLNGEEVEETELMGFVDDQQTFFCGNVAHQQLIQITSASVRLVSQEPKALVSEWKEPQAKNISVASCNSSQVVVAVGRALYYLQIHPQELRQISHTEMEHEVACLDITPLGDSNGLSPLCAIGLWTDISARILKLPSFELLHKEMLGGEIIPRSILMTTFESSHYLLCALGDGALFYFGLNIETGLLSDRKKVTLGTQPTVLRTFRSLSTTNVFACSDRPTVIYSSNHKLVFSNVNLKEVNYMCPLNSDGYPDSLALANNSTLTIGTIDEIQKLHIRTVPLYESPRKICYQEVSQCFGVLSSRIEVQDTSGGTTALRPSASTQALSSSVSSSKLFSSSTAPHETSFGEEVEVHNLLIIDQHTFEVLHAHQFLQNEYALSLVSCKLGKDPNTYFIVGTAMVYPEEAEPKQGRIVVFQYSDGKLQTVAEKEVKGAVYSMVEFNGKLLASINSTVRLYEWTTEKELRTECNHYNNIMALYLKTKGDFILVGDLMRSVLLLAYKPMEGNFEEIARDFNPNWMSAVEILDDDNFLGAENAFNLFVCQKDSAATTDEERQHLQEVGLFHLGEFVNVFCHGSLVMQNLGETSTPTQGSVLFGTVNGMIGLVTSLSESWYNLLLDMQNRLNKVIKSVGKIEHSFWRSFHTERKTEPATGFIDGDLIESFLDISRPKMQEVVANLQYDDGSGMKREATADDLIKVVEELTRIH
Method in brief: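 Percentage degradation of Cyclin D1 and CDK4 derived from densitometry of ECL Western blots on lysates of Calu-1 cells. Treatment was 16 h with compound at either 40 nM or 200 nM.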

[2] = test system: MCF7 cells; assay: Anti-proliferation (viability) of MCF7 cells (Table 7, FIG. 2B); format: cell-based; details: Homo sapiens, MCF7, MCF7 cells, 3-6 days, 10-point serial dilution; read-out: GI IC50 in MCF-7

Compound | inhibition at 0.04 µM [1] | inhibition at 0.2 µM [1] | IC50 [2]
CNc1ccc(C(=O)Nc2ncc(C)o2)c(NC2CC3(CC(NC(=O)CN4CCN(c5ccc(Nc6ncc7c(C)c(C(C)=O)c(=O)n(C8CCCC8)c7n6)nc5)CC4)C3)C2)n1 (centres unmarked) [CPD-246, 2-((6-(2-(4-(6-((6-acetyl-8-cyclopentyl-5-methyl-7-oxo-7,8-dihydropyrido[2,3-d]pyrimidin-2-yl)amino)pyridin-3-yl)piperazin-1-yl)acetamido)spiro[3.3]heptan-2-yl)amino)-6-(methylamino)-N-(5-methyloxazol-2-yl)nicotinamide] | 50 to 80% | 50 to 80% | –
CNc1ccc(C(=O)Nc2nc(C)c(C)o2)c(NC2CC3(CC(NC(=O)CN4CCN(c5ccc(Nc6ncc7c(C)c(C(C)=O)c(=O)n(C8CCCC8)c7n6)nc5)CC4)C3)C2)n1 (centres unmarked) [CPD-247, 2-((6-(2-(4-(6-((6-acetyl-8-cyclopentyl-5-methyl-7-oxo-7,8-dihydropyrido[2,3-d]pyrimidin-2-yl)amino)pyridin-3-yl)piperazin-1-yl)acetamido)spiro[3.3]heptan-2-yl)amino)-N-(4,5-dimethyloxazol-2-yl)-6-(methylamino)nicotinamide] | 50 to 80% | 50 to 80% | –
[2H]C([2H])([2H])Nc1ccc(C(=O)Nc2ccc(N(C)C)nn2)c(NC2CN(C(=O)C(F)(F)CN3CCN(c4ccc(Nc5ncc6c(C)c(C(C)=O)c(=O)n(C7CCCC7)c6n5)nc4)CC3)C2)n1 [CPD-248, 2-((1-(3-(4-(6-((6-acetyl-8-cyclopentyl-5-methyl-7-oxo-7,8-dihydropyrido[2,3-d]pyrimidin-2-yl)amino)pyridin-3-yl)piperazin-1-yl)-2,2-difluoropropanoyl)azetidin-3-yl)amino)-N-(6-(dimethylamino)pyridazin-3-yl)-6-((methyl-d3)amino)nicotinamide] | < 30% | < 30% | –
[2H]C([2H])([2H])Nc1ccc(C(=O)Nc2ccc(N(C)C)nn2)c(NC2CC3(C2)CN(C(=O)C(F)(F)CN2CCN(c4ccc(Nc5ncc6c(C)c(C(C)=O)c(=O)n(C7CCCC7)c6n5)nc4)CC2)C3)n1 [CPD-249, 2-((2-(3-(4-(6-((6-acetyl-8-cyclopentyl-5-methyl-7-oxo-7,8-dihydropyrido[2,3-d]pyrimidin-2-yl)amino)pyridin-3-yl)piperazin-1-yl)-2,2-difluoropropanoyl)-2-azaspiro[3.3]heptan-6-yl)amino)-N-(6-(dimethylamino)pyridazin-3-yl)-6-((methyl-d3)amino)nicotinamide] | 50 to 80% | 50 to 80% | –
CC(=O)c1c(C)c2cnc(Nc3ccc(N4CCN(CC(=O)NCCCCCNc5nc6[nH]ccc6cc5C(=O)Nc5ccc(N(C)C)nn5)CC4)cn3)nc2n(C2CCCC2)c1=O [CPD-251, 6-((5-(2-(4-(6-((6-acetyl-8-cyclopentyl-5-methyl-7-oxo-7,8-dihydropyrido[2,3-d]pyrimidin-2-yl)amino)pyridin-3-yl)piperazin-1-yl)acetamido)pentyl)amino)-N-(6-(dimethylamino)pyridazin-3-yl)-1H-pyrrolo[2,3-b]pyridine-5-carboxamide] | – | – | > 100 nM
CC(=O)c1c(C)c2cnc(Nc3ccc(N4CCN(C(=O)NCCC5CC(Nc6cc(Cl)ccc6C(=O)Nc6ccc(C)c(C7CC7)n6)C5)CC4)cn3)nc2n(C2CCCC2)c1=O (centres unmarked) [CPD-256, 4-(6-((6-Acetyl-8-cyclopentyl-5-methyl-7-oxo-7,8-dihydropyrido[2,3-d]pyrimidin-2-yl)amino)pyridin-3-yl)-N-(2-(3-((5-chloro-2-((6-cyclopropyl-5-methylpyridin-2-yl)carbamoyl)phenyl)amino)cyclobutyl)ethyl)piperazine-1-carboxamide] | < 30% | < 30% | –
CNc1ccc(C(=O)Nc2ccc(N(C)C)nn2)c(NC2CC3(C2)CN(C(=O)CCN2CCN(c4ccc(Nc5ncc6c(C)c(C(C)=O)c(=O)n(C7CCCC7)c6n5)nc4)CC2(C)C)C3)n1 [CPD-267, 2-((2-(3-(4-(6-((6-acetyl-8-cyclopentyl-5-methyl-7-oxo-7,8-dihydropyrido[2,3-d]pyrimidin-2-yl)amino)pyridin-3-yl)-2,2-dimethylpiperazin-1-yl)propanoyl)-2-azaspiro[3.3]heptan-6-yl)amino)-N-(6-(dimethylamino)pyridazin-3-yl)-6-(methylamino)nicotinamide] | – | – | < 50 nM
CNc1ccc(C(=O)Nc2ccc(N(C)C)nn2)c(NC2CC3(C2)CN(C(=O)CN2CCN(Cc4ccc(Nc5ncc6c(C)c(C(C)=O)c(=O)n(C7CCCC7)c6n5)nc4)CC2)C3)n1 [CPD-268, 2-((2-(2-(4-((6-((6-acetyl-8-cyclopentyl-5-methyl-7-oxo-7,8-dihydropyrido[2,3-d]pyrimidin-2-yl)amino)pyridin-3-yl)methyl)piperazin-1-yl)acetyl)-2-azaspiro[3.3]heptan-6-yl)amino)-N-(6-(dimethylamino)pyridazin-3-yl)-6-(methylamino)nicotinamide] | – | – | < 50 nM

Now from value to compound:

inhibition at 0.04 µM [1] | inhibition at 0.2 µM [1] | IC50 [2] | Compound
< 30% | 50 to 80% | – | CC(=O)c1c(C)c2cnc(Nc3ccc(N4CCN(CC(=O)NCCC5CC(Nc6cc(Cl)ccc6C(=O)Nc6ccc(C)c(C7CC7)n6)C5)CC4)cn3)nc2n(C2CCCC2)c1=O (centres unmarked) [CPD-255, 2-((3-(2-(2-(4-(6-((6-Acetyl-8-cyclopentyl-5-methyl-7-oxo-7,8-dihydropyrido[2,3-d]pyrimidin-2-yl)amino)pyridin-3-yl)piperazin-1-yl)acetamido)ethyl)cyclobutyl)amino)-4-chloro-N-(6-cyclopropyl-5-methylpyridin-2-yl)benzamide]
< 30% | 30 to 50% | – | CC(=O)c1c(C)c2cnc(Nc3ccc(N4CCN(CC(=O)NCCC5CC(Nc6cc(Cl)ccc6C(=O)Nc6ccc(N(C)C)nn6)C5)CC4)cn3)nc2n(C2CCCC2)c1=O (centres unmarked) [CPD-257, 2-((3-(2-(2-(4-(6-((6-Acetyl-8-cyclopentyl-5-methyl-7-oxo-7,8-dihydropyrido[2,3-d]pyrimidin-2-yl)amino)pyridin-3-yl)piperazin-1-yl)acetamido)ethyl)cyclobutyl)amino)-4-chloro-N-(6-(dimethylamino)pyridazin-3-yl)benzamide]
30 to 50% | 50 to 80% | – | CC(=O)c1c(C)c2cnc(Nc3ccc(N4CCN(CC(=O)NCCC5CC(Nc6cc(F)ccc6C(=O)Nc6ccc(N(C)C)nn6)C5)CC4)cn3)nc2n(C2CCCC2)c1=O (centres unmarked) [CPD-258, 2-((3-(2-(2-(4-(6-((6-Acetyl-8-cyclopentyl-5-methyl-7-oxo-7,8-dihydropyrido[2,3-d]pyrimidin-2-yl)amino)pyridin-3-yl)piperazin-1-yl)acetamido)ethyl)cyclobutyl)amino)-N-(6-(dimethylamino)pyridazin-3-yl)-4-fluorobenzamide]
< 30% | 30 to 50% | – | CC(=O)c1c(C)c2cnc(Nc3ccc(N4CCN(CC(=O)NC5CC6(C5)CC(Nc5cc(Cl)ccc5C(=O)Nc5cc(C)on5)C6)CC4)cn3)nc2n(C2CCCC2)c1=O (centres unmarked) [CPD-259, 2-((6-(2-(4-(6-((6-acetyl-8-cyclopentyl-5-methyl-7-oxo-7,8-dihydropyrido[2,3-d]pyrimidin-2-yl)amino)pyridin-3-yl)piperazin-1-yl)acetamido)spiro[3.3]heptan-2-yl)amino)-4-chloro-N-(5-methylisoxazol-3-yl)benzamide]
– | – | > 100 nM | CC(=O)c1c(C)c2cnc(Nc3ccc(N4CCN(CC(=O)NC5CC6(C5)CC(Nc5cc(F)ccc5C(=O)Nc5cc(C)on5)C6)CC4)cn3)nc2n(C2CCCC2)c1=O (centres unmarked) [CPD-260, 2-((6-(2-(4-(6-((6-acetyl-8-cyclopentyl-5-methyl-7-oxo-7,8-dihydropyrido[2,3-d]pyrimidin-2-yl)amino)pyridin-3-yl)piperazin-1-yl)acetamido)spiro[3.3]heptan-2-yl)amino)-4-fluoro-N-(5-methylisoxazol-3-yl)benzamide]
– | – | > 100 nM | CC(=O)c1c(C)c2cnc(Nc3ccc(N4CCN(CC(=O)NCC5CC(Nc6cc(C(F)(F)F)ccc6C(=O)Nc6cc(C)n(C)n6)C5)CC4)cn3)nc2n(C2CCCC2)c1=O (centres unmarked) [CPD-261, 2-((3-((2-(4-(6-((6-acetyl-8-cyclopentyl-5-methyl-7-oxo-7,8-dihydropyrido[2,3-d]pyrimidin-2-yl)amino)pyridin-3-yl)piperazin-1-yl)acetamido)methyl)cyclobutyl)amino)-N-(1,5-dimethyl-1H-pyrazol-3-yl)-4-(trifluoromethyl)benzamide]
– | – | > 100 nM | CC(=O)c1c(C)c2cnc(Nc3ccc(N4CCN(CC(=O)NCC5CC(Nc6ccc(C(F)(F)F)cc6C(=O)Nc6cc(C)n(C)n6)C5)CC4)cn3)nc2n(C2CCCC2)c1=O (centres unmarked) [CPD-262, 2-((3-((2-(4-(6-((6-acetyl-8-cyclopentyl-5-methyl-7-oxo-7,8-dihydropyrido[2,3-d]pyrimidin-2-yl)amino)pyridin-3-yl)piperazin-1-yl)acetamido)methyl)cyclobutyl)amino)-N-(1,5-dimethyl-1H-pyrazol-3-yl)-5-(trifluoromethyl)benzamide]
– | – | > 100 nM | CC(=O)c1c(C)c2cnc(Nc3ccc(N4CCN(CC(=O)NCC5CC(Nc6ccc(F)cc6C(=O)Nc6cc(C)n(C)n6)C5)CC4)cn3)nc2n(C2CCCC2)c1=O (centres unmarked) [CPD-263, 2-((3-((2-(4-(6-((6-acetyl-8-cyclopentyl-5-methyl-7-oxo-7,8-dihydropyrido[2,3-d]pyrimidin-2-yl)amino)pyridin-3-yl)piperazin-1-yl)acetamido)methyl)cyclobutyl)amino)-N-(1,5-dimethyl-1H-pyrazol-3-yl)-5-fluorobenzamide]
– | – | > 100 nM | CC(=O)c1c(C)c2cnc(Nc3ccc(N4CCN(CC(=O)NCC5CC(Nc6cc(F)ccc6C(=O)Nc6cc(C)n(C)n6)C5)CC4)cn3)nc2n(C2CCCC2)c1=O (centres unmarked) [CPD-264, 2-((3-((2-(4-(6-((6-acetyl-8-cyclopentyl-5-methyl-7-oxo-7,8-dihydropyrido[2,3-d]pyrimidin-2-yl)amino)pyridin-3-yl)piperazin-1-yl)acetamido)methyl)cyclobutyl)amino)-N-(1,5-dimethyl-1H-pyrazol-3-yl)-4-fluorobenzamide]
